From ChEMBL document CHEMBL1201862, “PubChem BioAssay data set” (2004) come the findings set out here.

Test systems include CCRF-CEM; HCT-116; SK-MEL-5; SF-295; UO-31; SN12C; SNB-75; SF-268; 786-0; HCT-15; HOP-62; OVCAR-8; OVCAR-5; MOLT-4; HCC 2998; UACC-257.
Holding throughout (test): NCI-60 cell line screen, 48 h

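Following 48 hours of exposure in 96-well plates, responses at five concentrations were used to interpolate endpoints linearly. GI50 is the concentration that inhibits growth by half.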 The source made the active and inactive calls. No stated cut-off is given here; in the data, active = GI50 up to about 1.1 µM and inactive = higher.

`Nc1nc(-c2ccco2)cc(-c2ccc(CO)o2)n1`: the GI50 in the assay with CCRF-CEM is 76.4 µM (inactive); with HCT-116, > 100 µM (inactive); in the assay on SK-MEL-5 it was > 100 µM (inactive); in the assay with SF-295 it was > 100 µM (inactive); in the assay with UO-31, 60.3 µM (inactive); in the assay on SN12C, > 100 µM (inactive). Further, the GI50 with SNB-75 was 72.9 µM (inactive); with SF-268, > 100 µM (inactive); in the assay with 786-0 it was > 100 µM (inactive); in the assay with HCT-15, more than 100 µM; in the assay with HOP-62, > 100 µM (inactive); with OVCAR-8, > 100 µM (inactive). Moreover, the GI50 in the assay on OVCAR-5 and with MOLT-4 was > 100 µM (inactive) each time.
As to `O=C1C[C@@H]2[C@@H](c3ccccc3)[C@@H]3C(=O)c4ccccc4NC(=O)[C@H]3[C@]2(O)c2ccccc2N1`, the GI50 in the assay with CCRF-CEM, in the assay on HCT-116, in the assay on SK-MEL-5, in the assay with SF-295, in the assay with UO-31 and with SN12C was > 100 µM (inactive) in each case. Moreover, the GI50 in the assay with SNB-75 was > 100 µM (inactive); in the assay with SF-268, > 100 µM (inactive); with 786-0, > 100 µM (inactive); with HCT-15, more than 100 µM; with HOP-62 it was > 100 µM (inactive); in the assay with OVCAR-8, > 100 µM (inactive). The GI50 in the assay on OVCAR-5 and in the assay on MOLT-4 was > 100 µM (inactive) in each case.
`COc1ccc(-c2cc(O)c3cc(OC)ccc3n2)cc1`: the GI50 in the assay on CCRF-CEM was > 100 µM (inactive); in the assay on HCT-116, > 100 µM (inactive); in the assay on SK-MEL-5, > 100 µM (inactive); in the assay on HCC 2998 it was 5.74 µM (inactive); in the assay on SF-295, > 100 µM (inactive); with UO-31, > 100 µM (inactive). The GI50 is > 100 µM (inactive) in the assay with SN12C; 92.9 µM (inactive) in the assay on SNB-75; 36.6 µM (inactive) in the assay on SF-268; > 100 µM (inactive) in the assay on 786-0; > 100 µM (inactive) in the assay with UACC-257; > 100 µM (inactive) in the assay with HOP-62. The GI50 in the assay with OVCAR-8, with OVCAR-5 and with MOLT-4 was > 100 µM (inactive) throughout.
For the molecule `[N-]=[N+]=NC(CCl)c1cn([C@H]2C[C@H](O)[C@@H](CO)O2)c(=O)[nH]c1=O` (some centres not stated), the GI50 in the assay on CCRF-CEM, with HCT-116, with SK-MEL-5, with HCC 2998, in the assay with SF-295 and with UO-31 was > 100 µM (inactive) throughout. Further, the GI50 in the assay on SN12C is > 100 µM (inactive); in the assay with SNB-75 it was > 100 µM (inactive); with 786-0, > 100 µM (inactive); with HCT-15, more than 100 µM; in the assay on HOP-62, > 100 µM (inactive); with OVCAR-8 it was > 100 µM (inactive). Besides, the GI50 in the assay with OVCAR-5 and in the assay with MOLT-4 was > 100 µM (inactive) in each case.
Regarding `CCCn1c(SCCSc2c3ccccc3c(-c3nc(F)nc(F)n3)n2CCC)c2ccccc2c1-c1nc(F)nc(F)n1`, the GI50 in the assay with CCRF-CEM was 46.9 µM (inactive); with HCT-116, > 100 µM (inactive); in the assay with HCC 2998, > 100 µM (inactive); in the assay with SF-295 it was > 100 µM (inactive); with UO-31, > 100 µM (inactive); in the assay on SN12C, > 100 µM (inactive). Moreover, the GI50 with SNB-75 was > 100 µM (inactive); in the assay on SF-268, > 100 µM (inactive); with 786-0 it was > 100 µM (inactive); in the assay on HCT-15, more than 100 µM; in the assay with UACC-257 it was > 100 µM (inactive); in the assay with HOP-62, > 100 µM (inactive). The GI50 in the assay on OVCAR-8, in the assay with OVCAR-5 and in the assay with MOLT-4 was > 100 µM (inactive) each time.
